Source: ChEMBL document CHEMBL4130359, “Indazole-based ligands for estrogen-related receptor α as potential anti-diabetic agents” (Eur J Med Chem, 2017)
pEC50: −log10 of the molar value.

Assays:
[1] = target: Peroxisome proliferator-activated receptor delta (Homo sapiens, UniProt Q03181); assay: Agonist activity at recombinant GST-tagged human PPARdelta LBD assessed as fluorescein-labeled coactivator peptide recruitment preincubated with enzyme followed by coactivator addition by LanthaScreen TR-FRET assay
Chain of Peroxisome proliferator-activated receptor delta (Q03181 whole entry, the tested form may be a part): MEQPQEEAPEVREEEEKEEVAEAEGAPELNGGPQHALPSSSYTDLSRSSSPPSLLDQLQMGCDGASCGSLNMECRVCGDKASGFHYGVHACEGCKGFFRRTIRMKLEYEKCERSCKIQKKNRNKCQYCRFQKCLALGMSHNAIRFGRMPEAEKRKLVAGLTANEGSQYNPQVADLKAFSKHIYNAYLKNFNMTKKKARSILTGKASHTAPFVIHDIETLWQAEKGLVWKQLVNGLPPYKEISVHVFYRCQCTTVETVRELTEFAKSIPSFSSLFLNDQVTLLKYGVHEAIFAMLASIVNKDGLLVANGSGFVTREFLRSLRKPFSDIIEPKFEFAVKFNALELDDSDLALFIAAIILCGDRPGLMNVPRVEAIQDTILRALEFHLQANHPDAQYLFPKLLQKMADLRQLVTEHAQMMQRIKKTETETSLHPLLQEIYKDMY

[2] = target: Retinoic acid receptor beta (Homo sapiens, UniProt P10826); assay: Agonist activity at recombinant GST-tagged human RARbeta LBD assessed as fluorescein-labeled coactivator peptide recruitment preincubated with enzyme followed by coactivator addition by LanthaScreen TR-FRET assay
Chain of Retinoic acid receptor beta (P10826 whole entry, the tested form may be a part): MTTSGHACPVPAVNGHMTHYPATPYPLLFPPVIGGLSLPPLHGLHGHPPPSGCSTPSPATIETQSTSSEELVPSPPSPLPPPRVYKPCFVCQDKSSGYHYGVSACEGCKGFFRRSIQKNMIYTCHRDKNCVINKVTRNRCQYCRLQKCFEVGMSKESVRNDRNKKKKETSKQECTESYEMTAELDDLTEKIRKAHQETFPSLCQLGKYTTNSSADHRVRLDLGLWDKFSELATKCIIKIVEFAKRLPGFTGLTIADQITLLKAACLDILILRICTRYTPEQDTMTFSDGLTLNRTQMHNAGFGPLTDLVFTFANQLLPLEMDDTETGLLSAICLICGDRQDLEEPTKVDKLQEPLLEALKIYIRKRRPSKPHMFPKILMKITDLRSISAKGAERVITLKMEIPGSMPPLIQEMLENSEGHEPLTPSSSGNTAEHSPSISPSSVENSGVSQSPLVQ

[3] = Volume of distribution at steady state in Sprague-Dawley rat at 2 mg/kg, iv by LC-MS analysis; assay type: ADME, organism-based; details: in vivo, read-out: Vdss
[4] = Cmax in Zucker rat sub-chronic fa/fa prediabetic model at 10 mg/kg, po qd for 26 days measured on day 26 post last dose; assay type: ADME, organism-based; design: dose 10 mg/kg, route oral; details: in vivo
[5] = AUC (0 to 24 hrs) in Zucker rat sub-chronic fa/fa prediabetic model at 1 mg/kg, po qd for 26 days measured on day 26 post last dose; assay type: ADME, organism-based; design: time < 24 hr, dose 1 mg/kg, route oral; details: in vivo
[6] = AUC (0 to 24 hrs) in Zucker rat sub-chronic fa/fa prediabetic model at 10 mg/kg, po qd measured on day 1 post dose; assay type: ADME, organism-based; design: time < 24 hr, dose 10 mg/kg, route oral; details: in vivo
[7] = AUC (0 to 24 hrs) in Zucker rat sub-chronic fa/fa prediabetic model at 50 mg/kg, po qd measured on day 1 post dose; assay type: ADME, organism-based; design: dose 50 mg/kg, time < 24 hr, route oral; details: in vivo
[8] = AUC (0 to 24 hrs) in Zucker rat sub-chronic fa/fa prediabetic model at 50 mg/kg, po qd for 26 days measured on day 26 post last dose; assay type: ADME, organism-based; design: dose 50 mg/kg, time < 24 hr, route oral; details: in vivo
Rattus norvegicus [9] = assay: Toxicity in Zucker rat sub-chronic fa/fa prediabetic model assessed as change in body weight at 3 mg/kg, po qd for 29 days measured on day 1 to 29 during compound dosing (reference value: 140 +/- 7 g); assay type: organism-based; details: in vivo, 696 h
Rattus norvegicus [10] = assay: Toxicity in Zucker rat sub-chronic fa/fa prediabetic model assessed as change in body weight at 50 mg/kg, po qd for 29 days measured on day 1 to 29 during compound dosing (reference value: 140 +/- 7 g); assay type: organism-based; details: in vivo, 696 h
Rattus norvegicus [11] = assay: Toxicity in Zucker rat sub-chronic fa/fa prediabetic model assessed as liver weight at 1 mg/kg, po qd for 31 days measured on day 32 (reference value: 28 +/- 1.6 g); assay type: organism-based; details: in vivo, 744 h
Rattus norvegicus [12] = assay: Toxicity in Zucker rat sub-chronic fa/fa prediabetic model assessed as insulin level per gram pancreas at 3 mg/kg, po qd for 31 days measured on day 32 (reference value: 55.2 +/- 5.5 ug); assay type: organism-based; details: in vivo, 744 h
Rattus norvegicus [13] = assay: Toxicity in Zucker rat sub-chronic fa/fa prediabetic model assessed as serum ALT level at 1 mg/kg, po qd for 31 days measured on day 32 (reference value: 151 +/- 23 U/L); assay type: organism-based; details: in vivo, 744 h
Rattus norvegicus [14] = assay: Antidiabetic activity in Zucker rat sub-chronic fa/fa prediabetic model assessed as serum adiponectin level at 3 mg/kg, po qd for 4 days by ELISA (reference value: 9.1%); assay type: functional
Rattus norvegicus [15] = assay: Antidiabetic activity in Zucker rat sub-chronic fa/fa prediabetic model assessed as increase in serum adiponectin level at 50 mg/kg, po qd for 32 days by ELISA relative to control; assay type: functional
Rattus norvegicus [16] = assay type: functional, Zucker
[17] = AUC (0 to 24 hrs) in […] model at 10 mg/kg, po qd measured on day 1 post dose; assay type: ADME, organism-based; design: dose 10 mg/kg, time < 24 hr, route oral; details: in vivo
Rattus norvegicus [18] = assay: Toxicity in […] chronic ob/ob model assessed as food intake at 3 mg/kg, po qd for 28 days measured on day 1 to 28 during compound dosing (reference value: 170.6 +/- 3 g); assay type: organism-based; details: in vivo, 672 h
Rattus norvegicus [19] = assay: Toxicity in […] chronic ob/ob model assessed as epididymal white adipose tissue weight at 10 mg/kg, po qd for 31 days measured on day 32 (reference value: 3.92 +/- 0.14 g); assay type: organism-based; details: in vivo, 744 h
Rattus norvegicus [20] = assay: Toxicity in […] model assessed as serum cholesterol level at 10 mg/kg, po qd for 31 days measured on day 32 (reference value: 195 +/- 5.5 mg/dl); assay type: organism-based; details: in vivo, 744 h
Rattus norvegicus [21] = assay: Toxicity in […] model assessed as serum AST level at 3 mg/kg, po qd for 31 days measured on day 32 (reference value: 180 +/- 26 U/L); assay type: organism-based; details: in vivo, 744 h
Rattus norvegicus [22] = assay: Toxicity in […] model assessed as serum creatinine level at 10 mg/kg, po qd for 31 days measured on day 32 (reference value: 0.55 +/- 0.018 mg/dl); assay type: organism-based; details: in vivo, 744 h
Rattus norvegicus [23] = assay: Effect on COX6A2 gene expression in epididymal white adipose tissue of Zucker rat sub-chronic fa/fa prediabetic model at 10 mg/kg, po qd for 15 days by microarray analysis relative to control; assay type: functional
Rattus norvegicus [24] = assay: Effect on HADHB gene expression in epididymal white adipose tissue of Zucker rat sub-chronic fa/fa prediabetic model at 10 mg/kg, po qd for 15 days by microarray analysis relative to control; assay type: functional
Rattus norvegicus [25] = assay: Effect on TNF gene expression in epididymal white adipose tissue of Zucker rat sub-chronic fa/fa prediabetic model at 10 mg/kg, po qd for 15 days by microarray analysis relative to control; assay type: functional
Rattus norvegicus [26] = assay: Effect on TNFRSF1B gene expression in epididymal white adipose tissue of Zucker rat sub-chronic fa/fa prediabetic model at 10 mg/kg, po qd for 15 days by microarray analysis relative to control; assay type: functional
Rattus norvegicus [27] = assay: Effect on GBE1 gene expression in epididymal white adipose tissue of Zucker rat sub-chronic fa/fa prediabetic model at 10 mg/kg, po qd for 15 days by microarray analysis relative to control; assay type: functional
Rattus norvegicus [28] = assay: Effect on YWHAG gene expression in epididymal white adipose tissue of Zucker rat sub-chronic fa/fa prediabetic model at 10 mg/kg, po qd for 15 days by microarray analysis relative to control; assay type: functional
Rattus norvegicus [29] = assay: Effect on AGPAT3 gene expression in epididymal white adipose tissue of Zucker rat sub-chronic fa/fa prediabetic model at 10 mg/kg, po qd for 15 days by microarray analysis relative to control; assay type: functional
Rattus norvegicus [30] = assay: Effect on HMGCS2 gene expression in epididymal white adipose tissue of Zucker rat sub-chronic fa/fa prediabetic model at 10 mg/kg, po qd for 15 days by microarray analysis relative to control; assay type: functional
Rattus norvegicus [31] = assay: Effect on IL1RL1 gene expression in epididymal white adipose tissue of Zucker rat sub-chronic fa/fa prediabetic model at 10 mg/kg, po qd for 15 days by microarray analysis relative to control; assay type: functional
Rattus norvegicus [32] = assay: Effect on ACSS1 gene expression in epididymal white adipose tissue of Zucker rat sub-chronic fa/fa prediabetic model at 10 mg/kg, po qd for 15 days by microarray analysis relative to control; assay type: functional
Rattus norvegicus [33] = assay: Effect on PCCB gene expression in epididymal white adipose tissue of Zucker rat sub-chronic fa/fa prediabetic model at 10 mg/kg, po qd for 15 days by microarray analysis relative to control; assay type: functional

CN1CC[C@@H](N2C(=O)S/C(=C\c3ccc4c(cnn4Cc4ccc(Cl)cc4C(F)(F)F)c3)C2=O)[C@H](F)C1
pEC50 [1]: < 5.00
pEC50 [2]: < 5.00
Vd [3]: 11.2 L/kg
Cmax [4]: 2900 ng/mL
AUC at 24 h [5]: 3200 ng·h/mL
AUC(0-t) at 24 h [6]: 18100 ng·h/mL
AUC(0-t) at 24 h [7]: 92000 ng·h/mL
AUC at 24 h [8]: 85900 ng·h/mL
Activity (Rattus norvegicus [9]): 160 g
Activity (Rattus norvegicus [10]): 157 g
Activity (Rattus norvegicus [11]): 21.9 g
Activity (Rattus norvegicus [12]): 90.7 µg
Activity (Rattus norvegicus [13]): 159 U/L
Activity (Rattus norvegicus [14]): 11.1%
fold change (FC) (Rattus norvegicus [15]): 3.3
Activity (Rattus norvegicus [16]): 134 mg/dL
AUC(0-t) at 24 h [17]: 3940 ng·h/mL
Activity (Rattus norvegicus [18]): 159.1 g
Activity (Rattus norvegicus [19]): 3.29 g
Activity (Rattus norvegicus [20]): 164 mg/dL
Activity (Rattus norvegicus [21]): 211 U/L
Activity (Rattus norvegicus [22]): 0.44 mg/dL
fold change (FC) (Rattus norvegicus [23]): 1.35
fold change (FC) (Rattus norvegicus [24]): 1.349
fold change (FC) (Rattus norvegicus [25]): -1.24
fold change (FC) (Rattus norvegicus [26]): -1.505
fold change (FC) (Rattus norvegicus [27]): 1.79
fold change (FC) (Rattus norvegicus [28]): 1.255
fold change (FC) (Rattus norvegicus [29]): -1.213
fold change (FC) (Rattus norvegicus [30]): -1.488
fold change (FC) (Rattus norvegicus [31]): -2.752
fold change (FC) (Rattus norvegicus [32]): -1.893
fold change (FC) (Rattus norvegicus [33]): -1.413
